Tested on: uterine gene expression
Assay: Gene expression profiling (HGU133A) in the uterus of ovariectomized monkeys treated with estradiol, tamoxifen or raloxifene
Assay type: in vivo, cynomolgus monkeys (Macaca fascicularis)
Settings: uterus, OVX monkeys

In the case of `C#C[C@]1(O)CC[C@H]2[C@@H]3CCc4cc(O)ccc4[C@H]3CC[C@@]21C` [EE], the “Fold change relative to SHAM control: Insulin-like growth factor binding protein 2, 36 kda” value is reported as 4.4 fold, the “Fold change relative to SHAM control: Insulin-like growth factor binding protein 5” value is reported as 2.8 fold and the “Fold change relative to SHAM control: Integrin, beta 5” value is reported as 1.0 fold. The “Fold change relative to SHAM control: Intercrine-alpha, mrna sequence” value was 0.9 fold, the “Fold change relative to SHAM control: LDL receptor adaptor protein” value was 0.8 fold and the “Fold change relative to SHAM control: LIM and senescent cell antigen-like domains 1” value was 1.4 fold. For the same compound, the “Fold change relative to SHAM control: Laminin, beta 1” value was 1.0 fold, the “Fold change relative to SHAM control: Latent transforming growth factor beta binding protein 1” value was 1.7 fold and the “Fold change relative to SHAM control: Matrix metalloproteinase 19” value was 1.2 fold. The “Fold change relative to SHAM control: Mitogen-activated protein kinase kinase kinase kinase 4” value was 0.9 fold, the “Fold change relative to SHAM control: Nidogen (enactin)” value was 2.6 fold and the “Fold change relative to SHAM control: Osteoglycin (osteoinductive factor, mimecan)” value was 1.0 fold. For the same compound, the “Fold change relative to SHAM control: Peroxiredoxin 1” value was 1.6 fold, the “Fold change relative to SHAM control: Phosphatase and tensin homolog (mutated in multiple advanced cancers 1)” value was 1.2 fold and the “Fold change relative to SHAM control: Phospholipid transfer protein” value was 1.3 fold. The “Fold change relative to SHAM control: Pituitary tumour-transforming 1 interacting protein” value was 0.9 fold, the “Fold change relative to SHAM control: Procollagen C-endopeptidase enhancer” value was 1.5 fold and the “Fold change relative to SHAM control: Procollagen-proline, 2-oxoglutarate 4-dioxygenase (proline 4-hydroxylase), alpha polypeptide II” value was 1.7 fold. For the same compound, the “Fold change relative to SHAM control: Progesterone receptor” value was 3.2 fold, the “Fold change relative to SHAM control: Protein tyrosine kinase 9” value was 1.3 fold and the “Fold change relative to SHAM control: SET domain, bifurcated 1” value was 2.3 fold. The “Fold change relative to SHAM control: SPARC-like 1 (mast9, hevin)” value was 1.5 fold, the “Fold change relative to SHAM control: Secreted frizzled-related protein 1” value was 3.6 fold and the “Fold change relative to SHAM control: Secreted frizzled-related protein 4” value was 1.9 fold. The “Fold change relative to SHAM control: Secreted protein, acidic, cysteine-rich (osteonectin)” value was 1.4 fold, the “Fold change relative to SHAM control: Serine (or cysteine) proteinase inhibitor, clade H (heat shock protein 47), member 1, (collagen binding protein 1)” value was 1.6 fold and the “Fold change relative to SHAM control: Solute carrier family 22 (organic cation transporter), member 1-like” value was 1.6 fold. The “Fold change relative to SHAM control: Solute carrier family 25 (mitochondrial carrier; adenine nucleotide translocator), member 5” value was 1.7 fold, the “Fold change relative to SHAM control: Stem cell growth factor; lymphocyte secreted C-type lectin” value was 1.4 fold and the “Fold change relative to SHAM control: Tenascin C (hexabrachion)” value was 0.9 fold. The “Fold change relative to SHAM control: Testis Enhanced Gene Transcript (Bax Inhibitor 1)” value was 1.8 fold, the “Fold change relative to SHAM control: Thioredoxin interacting protein” value was 0.5 fold and the “Fold change relative to SHAM control: Transforming growth factor, beta-induced, 68 kda” value was 0.8 fold. The “Fold change relative to SHAM control: Ubiquinol-cytochrome c reductase, Rieske iron-sulfur polypeptide 1” value was 1.1 fold, the “Fold change relative to SHAM control: Wingless-type MMTV integration site family, member 2B” value was 1.5 fold and the “Fold change relative to SHAM control: Wingless-type MMTV integration site family, member 16” value was 0.9 fold. The “Fold change relative to OVX: Insulin receptor” value (Table 46) was 0.8 fold, the “Fold change relative to SHAM control: Insulin receptor” value (Table 46) was 1.2 fold and the “Fold change relative to OVX: Insulin receptor” value (Table 51) was 0.8 fold. For the same compound, the “Fold change relative to SHAM control: Insulin receptor” value (Table 51) was 1.2 fold, the “Fold change relative to OVX: Fibronectin 1” value (entry with OVX average 39) was 1.6 fold and the “Fold change relative to OVX: Bone morphogenetic protein 1” value (entry with OVX average 79) was 2.6 fold. For the same compound, the “Fold change relative to OVX: Bone morphogenetic protein 1” value (entry with OVX average 93) was 2.9 fold, the “Fold change relative to OVX: Insulin-like growth factor 1 (somatomedin C)” value (shortened to “Fold change relative to OVX … (somatomedin C)”) (entry with OVX average 102) was 5.3 fold and the “Fold change relative to OVX: Fibrillin 1 (Marfan syndrome)” value (entry with OVX average 124) was 2.2 fold. The “Fold change relative to OVX: Collagen, type I, alpha 2” value (entry with OVX average 154) was 13.2 fold, the “Fold change relative to OVX … (somatomedin C)” value (entry with OVX average 156) was 6.9 fold and the “Fold change relative to OVX: Solute carrier family 2 (facilitated glucose/fructose transporter), member 5” value (entry with OVX average 171) was 4.4 fold. For the same compound, the “Fold change relative to OVX: Solute carrier family 2 (facilitated glucose/fructose transporter), member 5” value (entry with OVX average 176) was 3.5 fold, the “Fold change relative to OVX: Collagen, type IV, alpha 1” value (entry with OVX average 182) was 4.3 fold and the “Fold change relative to OVX: Cyclin-dependent kinase inhibitor 1C (p57, Kip2)” value (entry with OVX average 224) was 0.5 fold. For the same compound, the “Fold change relative to OVX … (somatomedin C)” value (entry with OVX average 310) was 6.3 fold, the “Fold change relative to OVX: Fibronectin 1” value (entry with OVX average 419) was 2.4 fold and the “Fold change relative to OVX: Cyclin-dependent kinase inhibitor 1C (p57, Kip2)” value (entry with OVX average 527) was 0.4 fold. The “Fold change relative to OVX: Fibronectin 1” value (entry with OVX average 586) was 2.1 fold, the “Fold change relative to OVX: Fibronectin 1” value (entry with OVX average 648) was 1.9 fold and the “Fold change relative to OVX: Collagen, type IV, alpha 1” value (entry with OVX average 690) was 3.7 fold. For the same compound, the “Fold change relative to OVX: Fibronectin 1” value (entry with OVX average 757) was 1.8 fold, the “Fold change relative to OVX: Cyclin-dependent kinase inhibitor 1C (p57, Kip2)” value (entry with OVX average 762) was 0.5 fold and the “Fold change relative to OVX: ATP synthase, H+ transporting, mitochondrial F0 complex, subunit c (subunit 9) isoform 3” value (entry with OVX average 811) was 2.0 fold. The “Fold change relative to OVX: Fibrillin 1 (Marfan syndrome)” value (entry with OVX average 874) was 3.5 fold, the “Fold change relative to OVX: ATP synthase, H+ transporting, mitochondrial F0 complex, subunit c (subunit 9) isoform 3” value (entry with OVX average 1007) was 2.0 fold and the “Fold change relative to OVX: Collagen, type III, alpha 1 (Ehlers-Danlos syndrome type IV, autosomal dominant)” value (entry with OVX average 1084) was 6.8 fold. The “Fold change relative to OVX: Collagen, type I, alpha 2” value (entry with OVX average 2757) was 5.1 fold, the “Fold change relative to OVX: Collagen, type III, alpha 1 (Ehlers-Danlos syndrome type IV, autosomal dominant)” value (entry with OVX average 3445) was 4.1 fold and the “Fold change relative to OVX: H3 histone, family 3A” value (entry with OVX average 9495) was 1.5 fold. For the same compound, the “Fold change relative to OVX: H3 histone, family 3A” value (entry with OVX average 9692) was 1.4 fold, the “Fold change relative to SHAM control: Fibronectin 1” value (entry with SHAM average 100) was 0.6 fold and the “Fold change relative to SHAM control: Bone morphogenetic protein 1” value (entry with SHAM average 143) was 1.4 fold. The “Fold change relative to SHAM control: Cyclin-dependent kinase inhibitor 1C (p57, Kip2)” value (entry with SHAM average 201) was 0.6 fold, the “Fold change relative to SHAM control: Bone morphogenetic protein 1” value (entry with SHAM average 205) was 1.3 fold and the “Fold change relative to SHAM control: Insulin-like growth factor 1 (somatomedin C)” value (entry with SHAM average 226) was 2.4 fold. For the same compound, the “Fold change relative to SHAM control: Fibrillin 1 (Marfan syndrome)” value (entry with SHAM average 236) was 1.2 fold, the “Fold change relative to SHAM control: Solute carrier family 2 (facilitated glucose/fructose transporter), member 5” value (entry with SHAM average 291) was 2.1 fold and the “Fold change relative to SHAM control: Solute carrier family 2 (facilitated glucose/fructose transporter), member 5” value (entry with SHAM average 317) was 2.4 fold. The “Fold change relative to SHAM control: Insulin-like growth factor 1 (somatomedin C)” value (entry with SHAM average 417) was 2.6 fold, the “Fold change relative to SHAM control: Collagen, type IV, alpha 1” value (entry with SHAM average 436) was 1.8 fold and the “Fold change relative to SHAM control: Cyclin-dependent kinase inhibitor 1C (p57, Kip2)” value (entry with SHAM average 459) was 0.5 fold. For the same compound, the “Fold change relative to SHAM control: Collagen, type I, alpha 2” value (entry with SHAM average 493) was 4.1 fold, the “Fold change relative to SHAM control: Insulin-like growth factor 1 (somatomedin C)” value (entry with SHAM average 581) was 3.4 fold and the “Fold change relative to SHAM control: Cyclin-dependent kinase inhibitor 1C (p57, Kip2)” value (entry with SHAM average 660) was 0.5 fold. The “Fold change relative to SHAM control: Fibronectin 1” value (entry with SHAM average 920) was 1.1 fold, the “Fold change relative to SHAM control: ATP synthase, H+ transporting, mitochondrial F0 complex, subunit c (subunit 9) isoform 3” value (entry with SHAM average 1045) was 1.6 fold and the “Fold change relative to SHAM control: Fibronectin 1” value (entry with SHAM average 1089) was 1.1 fold. For the same compound, the “Fold change relative to SHAM control: Collagen, type IV, alpha 1” value (entry with SHAM average 1143) was 2.2 fold, the “Fold change relative to SHAM control: Fibronectin 1” value (entry with SHAM average 1288) was 0.9 fold and the “Fold change relative to SHAM control: Fibronectin 1” value (entry with SHAM average 1301) was 1.1 fold. For the same compound, the “Fold change relative to SHAM control: ATP synthase, H+ transporting, mitochondrial F0 complex, subunit c (subunit 9) isoform 3” value (entry with SHAM average 1355) was 1.5 fold, the “Fold change relative to SHAM control: Fibrillin 1 (Marfan syndrome)” value (entry with SHAM average 1388) was 2.2 fold and the “Fold change relative to SHAM control: Collagen, type III, alpha 1 (Ehlers-Danlos syndrome type IV, autosomal dominant)” value (entry with SHAM average 2992) was 2.5 fold. For the same compound, the “Fold change relative to SHAM control: Collagen, type III, alpha 1 (Ehlers-Danlos syndrome type IV, autosomal dominant)” value (entry with SHAM average 7354) was 1.9 fold, the “Fold change relative to SHAM control: Collagen, type I, alpha 2” value (entry with SHAM average 7758) was 1.8 fold and the “Fold change relative to SHAM control: H3 histone, family 3A” value (entry with SHAM average 9408) was 1.5 fold. For the same compound, the “Fold change relative to SHAM control: H3 histone, family 3A” value (entry with SHAM average 10239) was 1.4 fold.
